Experimental data published in article PMC2818883 (Inorganic chemistry, 2010).
Where two headings read alike, the source gives them in different places.

Assays:
HIV = conditions: cited from earlier work
HIV-2 (ROD) = test: Anti-HIV activity in MT-4 cell cultures, HIV-2; format: cell-based; conditions: read-out: av. IC50, average, MT-4 cells
MT-4 cells = test: Cytotoxicity evaluation in uninfected MT-4 cells; format: cell-based
[1] = test system: HIV-1 (IIIB) and HIV-2 (ROD) strains; format: cell-based; conditions: for IC50: read-out: IC50 values, text summary over HIV-1 (IIIB) and HIV-2 (ROD) strains

| Molecule | antiviral (anti-HIV) activity in words [1] | IC50 [1] | further results |
| --- | --- | --- | --- |
| c1cc(CN2CCCNCCNCCCNCC2)ccc1CN1CCCNCCNCCCNCC1 [AMD3100, xylylbicyclam] | – | – | IC50 (HIV; read-out: IC50 against HIV, entry inhibitor drug against HIV): < 100 nM |
| O=S(=O)([O-])[O-].O=S(=O)([O-])[O-].[O]=[V+2].[O]=[V+2].c1cc(CN2CCCNCCNCCCNCC2)ccc1CN1CCCNCCNCCCNCC1 [Complex 3, oxovanadium(IV)-(xylylbicyclam) disulfate] | highly active | 1000 to 5000 nM | IC50 (HIV-2 (ROD)): 3.3 µM; CC50 (MT-4 cells): > 151 µM |
| [Cl-].[Cl-].[Cl-].[Cl-].[O]=[V+2].[O]=[V+2].c1cc(CN2CCCNCCNCCCNCC2)ccc1CN1CCCNCCNCCCNCC1 [Complex 4, oxovanadium(IV)-(xylylbicyclam) tetrachloride] | highly active | 100 to 300 nM | CC50 (MT-4 cells; read-out: av. CC50, average, uninfected MT-4 cells): > 161 µM; CC50 (MT-4 cells; single determinations, reduces viability of uninfected MT-4 cells by 50%): > 161 µM |
| Co(III)-cyclam | – | – | anti-HIV activity of metal cyclams in words (HIV): inactive |
| Pd(II)-cyclam | – | – | anti-HIV activity of metal cyclams in words (HIV): inactive |
| oxovanadium(IV)-cyclam dichloride [Complex 2] | inactive | > 360000 nM | – |
| oxovanadium(IV)-cyclam sulfate [Complex 1] | inactive | > 340000 nM | – |
